Source: patent US10787452B2 (Vertex Pharmaceuticals Incorporated, priority 2012, dated 2020)

tested on: HCT116 colorectal cancer cells; experiment: Cisplatin sensitization assay (96 h cell viability MTS); assay type: cell-based; conditions: 96 h MTS, compound plus Cisplatin;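 note: compound concentration needed to lower the Cisplatin-alone IC50 by a set fold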
How it was run: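 Full-matrix combination: compound × cisplatin, 2-fold dilutions from 10 μM top final, co-added; 96 h, 37° C, 5% CO2; MTS read-out after 1 h.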

Row | SMILES | Cisplatin Sensitization Assay
1 | COC1CN(C(=O)C2CCN(c3c(F)cncc3NC(=O)c3c(N)nn4cc(F)cnc34)CC2)C1 [I-G-21, 2-amino-6-fluoro-N-(5-fluoro-4-(4-(3-methoxyazetidine-1-carbonyl)piperidin-1-yl)pyridin-3-yl)pyrazolo[1,5-a]pyrimidine-3-carboxamide] | +++ (Compounds with a Cisplatin sensitization value of <0.02 μM are marked with “+++.”)
2 | CN(C)C1CN(C(=O)C2CCN(c3c(F)cncc3NC(=O)c3c(N)nn4cc(F)cnc34)CC2)C1 [I-G-22, 2-amino-N-(4-(4-(3-(dimethylamino)azetidine-1-carbonyl)piperidin-1-yl)-5-fluoropyridin-3-yl)-6-fluoropyrazolo[1,5-a]pyrimidine-3-carboxamide] | +++ (Compounds with a Cisplatin sensitization value of <0.02 μM are marked with “+++.”)
3 | CN1CC(NC(=O)C2CCN(c3c(F)cncc3NC(=O)c3c(N)nn4cc(F)cnc34)CC2)C1 [I-G-23, 2-amino-6-fluoro-N-(5-fluoro-4-(4-((1-methylazetidin-3-yl)carbamoyl)piperidin-1-yl)pyridin-3-yl)pyrazolo[1,5-a]pyrimidine-3-carboxamide] | +++ (Compounds with a Cisplatin sensitization value of <0.02 μM are marked with “+++.”)
4 | CN1CCC(NC(=O)C2CCN(c3c(F)cncc3NC(=O)c3c(N)nn4cc(F)cnc34)CC2)C1 (stereo not drawn) [I-G-24, 2-amino-6-fluoro-N-(5-fluoro-4-(4-((1-methylpyrrolidin-3-yl)carbamoyl)piperidin-1-yl)pyridin-3-yl)pyrazolo[1,5-a]pyrimidine-3-carboxamide] | +++ (Compounds with a Cisplatin sensitization value of <0.02 μM are marked with “+++.”)
5 | CN1CCN(C(=O)C2(C#N)CCN(c3c(F)cncc3NC(=O)c3c(N)nn4cc(F)cnc34)CC2)CC1 [I-G-25, 2-amino-N-(4-(4-cyano-4-(4-methylpiperazine-1-carbonyl)piperidin-1-yl)-5-fluoropyridin-3-yl)-6-fluoropyrazolo[1,5-a]pyrimidine-3-carboxamide] | +++ (Compounds with a Cisplatin sensitization value of <0.02 μM are marked with “+++.”)
6 | CN(C)CCCNC(=O)C1CCN(c2c(F)cncc2NC(=O)c2c(N)nn3cc(F)cnc23)CC1 [I-G-26, 2-amino-N-(4-(4-((3-(dimethylamino)propyl)carbamoyl)piperidin-1-yl)-5-fluoropyridin-3-yl)-6-fluoropyrazolo[1,5-a]pyrimidine-3-carboxamide] | ++ (Compounds with a Cisplatin sensitization value >0.02 μM but <0.2 μM are marked with “++.”)
7 | CC1(C)CN(C(=O)C2CCN(c3c(F)cncc3NC(=O)c3c(N)nn4cc(F)cnc34)CC2)CCN1 [I-G-27, 2-amino-N-(4-(4-(3,3-dimethylpiperazine-1-carbonyl)piperidin-1-yl)-5-fluoropyridin-3-yl)-6-fluoropyrazolo[1,5-a]pyrimidine-3-carboxamide] | ++ (Compounds with a Cisplatin sensitization value >0.02 μM but <0.2 μM are marked with “++.”)
8 | Nc1nn2cc(F)cnc2c1C(=O)Nc1cncc(F)c1N1CCC(C(=O)N2CCNC3(CC3)C2)CC1 [I-G-28, N-(4-(4-(4,7-diazaspiro[2.5]octane-7-carbonyl)piperidin-1-yl)-5-fluoropyridin-3-yl)-2-amino-6-fluoropyrazolo[1,5-a]pyrimidine-3-carboxamide] | +++ (Compounds with a Cisplatin sensitization value of <0.02 μM are marked with “+++.”)
9 | CN(C)C(=O)C1CCN(c2c(F)cncc2NC(=O)c2c(N)nn3cc(F)cnc23)CC1 [I-G-29, 2-amino-N-(4-(4-(dimethylcarbamoyl)piperidin-1-yl)-5-fluoropyridin-3-yl)-6-fluoropyrazolo[1,5-a]pyrimidine-3-carboxamide] | +++ (Compounds with a Cisplatin sensitization value of <0.02 μM are marked with “+++.”)
10 | CN(C)CCNC(=O)C1CCN(c2c(F)cncc2NC(=O)c2c(N)nn3cc(F)cnc23)CC1 [I-G-30, 2-amino-N-(4-(4-((2-(dimethylamino)ethyl)carbamoyl)piperidin-1-yl)-5-fluoropyridin-3-yl)-6-fluoropyrazolo[1,5-a]pyrimidine-3-carboxamide] | +++ (Compounds with a Cisplatin sensitization value of <0.02 μM are marked with “+++.”)
11 | CN(C)CCN(C)C(=O)C1CCN(c2c(F)cncc2NC(=O)c2c(N)nn3cc(F)cnc23)CC1 [I-G-31, 2-amino-N-(4-(4-((2-(dimethylamino)ethyl)(methyl)carbamoyl)piperidin-1-yl)-5-fluoropyridin-3-yl)-6-fluoropyrazolo[1,5-a]pyrimidine-3-carboxamide] | +++ (Compounds with a Cisplatin sensitization value of <0.02 μM are marked with “+++.”)
12 | Nc1nn2cc(F)cnc2c1C(=O)Nc1cncc(F)c1N1CCC(C(=O)N2CCN(C3COC3)CC2)CC1 [I-G-32, 2-amino-6-fluoro-N-[5-fluoro-4-[4-[4-(oxetan-3-yl)piperazine-1-carbonyl]-1-piperidyl]-3-pyridyl]pyrazolo[1,5-a]pyrimidine-3-carboxamide] | +++ (Compounds with a Cisplatin sensitization value of <0.02 μM are marked with “+++.”)
13 | CNC(=O)C1CCN(c2c(F)cncc2NC(=O)c2c(N)nn3cc(F)cnc23)CC1 [I-G-33, 2-amino-6-fluoro-N-(5-fluoro-4-(4-(methylcarbamoyl)piperidin-1-yl)pyridin-3-yl)pyrazolo[1,5-a]pyrimidine-3-carboxamide] | +++ (Compounds with a Cisplatin sensitization value of <0.02 μM are marked with “+++.”)
14 | CNC1CN(C(=O)C2CCN(c3c(F)cncc3NC(=O)c3c(N)nn4cc(F)cnc34)CC2)C1 [I-G-34, 2-amino-6-fluoro-N-(5-fluoro-4-(4-(3-(methylamino)azetidine-1-carbonyl)piperidin-1-yl)pyridin-3-yl)pyrazolo[1,5-a]pyrimidine-3-carboxamide] | +++ (Compounds with a Cisplatin sensitization value of <0.02 μM are marked with “+++.”)
15 | Nc1nn2cc(F)cnc2c1C(=O)Nc1cncc(F)c1N1CCC(C(=O)N2CCN(C3CCC3)CC2)CC1 [I-G-35, 2-amino-N-(4-(4-(4-cyclobutylpiperazine-1-carbonyl)piperidin-1-yl)-5-fluoropyridin-3-yl)-6-fluoropyrazolo[1,5-a]pyrimidine-3-carboxamide] | +++ (Compounds with a Cisplatin sensitization value of <0.02 μM are marked with “+++.”)
16 | Nc1nn2cc(F)cnc2c1C(=O)Nc1cncc(F)c1N1CCC(C(=O)N2CCOCC2)CC1 [I-G-36, 2-amino-6-fluoro-N-(5-fluoro-4-(4-(morpholine-4-carbonyl)piperidin-1-yl)pyridin-3-yl)pyrazolo[1,5-a]pyrimidine-3-carboxamide] | +++ (Compounds with a Cisplatin sensitization value of <0.02 μM are marked with “+++.”)
17 | Nc1nn2cc(F)cnc2c1C(=O)Nc1cncc(F)c1N1CCC(C(=O)NC2COC2)CC1 [I-G-37, 2-amino-6-fluoro-N-(5-fluoro-4-(4-(oxetan-3-ylcarbamoyl)piperidin-1-yl)pyridin-3-yl)pyrazolo[1,5-a]pyrimidine-3-carboxamide] | ++ (Compounds with a Cisplatin sensitization value >0.02 μM but <0.2 μM are marked with “++.”)
18 | CN1CCN(C(=O)C2CCN(c3c(F)cncc3NC(=O)c3c(N)nn4cc(F)cnc34)CC2)CC12CC2 [I-G-38, 2-amino-6-fluoro-N-(5-fluoro-4-(4-(4-methyl-4,7-diazaspiro[2.5]octane-7-carbonyl)piperidin-1-yl)pyridin-3-yl)pyrazolo[1,5-a]pyrimidine-3-carboxamide] | +++ (Compounds with a Cisplatin sensitization value of <0.02 μM are marked with “+++.”)
19 | COCCN(C)C(=O)C1CCN(c2c(F)cncc2NC(=O)c2c(N)nn3cc(F)cnc23)CC1 [I-G-40, 2-amino-6-fluoro-N-(5-fluoro-4-(4-((2-methoxyethyl)(methyl)carbamoyl)piperidin-1-yl)pyridin-3-yl)pyrazolo[1,5-a]pyrimidine-3-carboxamide] | +++ (Compounds with a Cisplatin sensitization value of <0.02 μM are marked with “+++.”)
20 | Nc1nn2cc(F)cnc2c1C(=O)Nc1cncc(F)c1N1CCC(C(=O)N2CC(O)C2)CC1 [I-G-41, 2-amino-6-fluoro-N-(5-fluoro-4-(4-(3-hydroxyazetidine-1-carbonyl)piperidin-1-yl)pyridin-3-yl)pyrazolo[1,5-a]pyrimidine-3-carboxamide] | +++ (Compounds with a Cisplatin sensitization value of <0.02 μM are marked with “+++.”)
21 | Nc1nn2cc(F)cnc2c1C(=O)Nc1cncc(F)c1N1CCC(C(=O)NCCN2CCC2)CC1 [I-G-42, 2-amino-N-(4-(4-((2-(azetidin-1-yl)ethyl)carbamoyl)piperidin-1-yl)-5-fluoropyridin-3-yl)-6-fluoropyrazolo[1,5-a]pyrimidine-3-carboxamide] | +++ (Compounds with a Cisplatin sensitization value of <0.02 μM are marked with “+++.”)
22 | Nc1nn2cc(F)cnc2c1C(=O)Nc1cncc(F)c1N1CCC(C(=O)N2CC(N3CCCC3)C2)CC1 [I-G-43, 2-amino-6-fluoro-N-(5-fluoro-4-(4-(3-(pyrrolidin-1-yl)azetidine-1-carbonyl)piperidin-1-yl)pyridin-3-yl)pyrazolo[1,5-a]pyrimidine-3-carboxamide] | +++ (Compounds with a Cisplatin sensitization value of <0.02 μM are marked with “+++.”)
23 | Nc1nn2cc(F)cnc2c1C(=O)Nc1cncc(F)c1N1CCC(C(=O)N2CC3CCC(C2)N3)CC1 [I-G-44, N-(4-(4-(3,8-diazabicyclo[3.2.1]octane-3-carbonyl)piperidin-1-yl)-5-fluoropyridin-3-yl)-2-amino-6-fluoropyrazolo[1,5-a]pyrimidine-3-carboxamide] | +++ (Compounds with a Cisplatin sensitization value of <0.02 μM are marked with “+++.”)
24 | C[C@@H]1CN(C(=O)C2CCN(c3c(F)cncc3NC(=O)c3c(N)nn4cc(F)cnc34)CC2)CCN1 [I-G-45, (R)-2-amino-6-fluoro-N-(5-fluoro-4-(4-(3-methylpiperazine-1-carbonyl)piperidin-1-yl)pyridin-3-yl)pyrazolo[1,5-a]pyrimidine-3-carboxamide] | +++ (Compounds with a Cisplatin sensitization value of <0.02 μM are marked with “+++.”)
